Reference: PMC11638965, “Leveraging Dual-Ligase Recruitment to Enhance Protein Degradation via a Heterotrivalent Proteolysis Targeting Chimera” (Journal of the American Chemical Society, 2024)
“Also recorded” adds a separate entry of the source.

What was measured:
[1] = tested on: HiBiT-BRD4 and HaloTag-VHL; assay: NanoBRET live cell ternary complex formation assay; format: cell-based, human; conditions: HiBiT-BRD4 HEK293 cells, MG132 pretreatment, 0.01, 0.1 and 1 μM, 3.5 h
Experimental: (§1) NanoBRET ternary complex assays were performed using Promega kits for CRBN (ND2720) and VHL (ND2700) according to manufacturer’s instructions. One day prior to the assay, HEK293 HiBiT-BRD4 (LgBiT Stable) were plated at a density of 800,000 cells/well in a 6-well plate. Cells were allowed to adhere for at least 4 h. Transfection mixtures containing 100 μL Opti-MEM, 6 μL FuGENE HD, and either 2 μg HaloTag-CRBN or HaloTag-VHL were prepared and allowed to incubate for 10 min at room temperature prior to addition to the cells. The next day, cells were trypsinized and resuspended in phenol red-free Opti-MEM Reduced Serum Medium supplemented with 4% FBS. Cells were counted and density was adjusted to 200,000 cells/mL. Cells were divided into two pools: one which received HaloTag NanoBRET 618 Ligand at a final concentration of 100 nM and one which received the same volume of DMSO. Cells were plated on white tissue-culture 96-well plates (100 μL/well) and allowed to adhere overnight. The next day, media was aspirated from the cells and replaced with phenol red-free Opti-MEM Reduced Serum medium supplemented with 4% FBS and a 1:100 dilution of Nano-Glo Vivazine substrate (Promega) and 10 μM MG132. Luminescence was allowed to equilibrate at 37 °C, 5% CO2 for 1 h. During this time, a dilution series of each PROTAC at 10x the desired final concentration was prepared (keeping DMSO constant in all concentrations). 10 μL of this dilution series was added to the plate after luminescence equilibration, and kinetic measurements of donor emission at 460 nm and acceptor emission at 618 nm were collected every 3 min using a ClarioStar plate reader. milliBRET ratios were calculated as (Emission at 618 nm/Emission at 460 nm) × 1000. Donor-contributed background or bleedthrough was corrected for by subtracting milliBRET ratios from no ligand control cells from treated cells. Corrected milliBRET ratios were plotted as a function of time in GraphPad Prism.

[2] = tested on: HiBiT-BRD4 and HaloTag-CRBN; assay: NanoBRET live cell ternary complex formation assay; format: cell-based, human; conditions: for ternary complex formation between BRD4 and CRBN (in words): HiBiT-BRD4 HEK293 cells, HaloTag-CRBN, MG132 pretreatment, 0.01, 0.1 and 1 μM, 3.5 h; for time to plateau of ternary complex signal with CRBN: NanoBRET, HiBiT-BRD4 HEK293 cells with HaloTag-CRBN
Experimental: as §1

BRD4 = BRD4 (Homo sapiens, UniProt O60885); assay: NanoBRET ubiquitination assay; format: cell-based; conditions: parental vs CRBN KO or VHL KO HiBiT-BRD4 cells, HaloTag-Ubiquitin, 12 nM to 3 μM, 4 h
Experimental: NanoBRET ubiquitination experiments were conducted using Promega kit ND2690. HEK293 HiBiT-BRD4 parental, VHL KO, or CRBN KO cells (all stably expressing LgBiT) were plated in 6-well plates at 800,000 cells/well and allowed to adhere for 4–6 h prior to being transfected with 2 μg of HaloTag-Ubiquitin Fusion Vector. Cells were allowed to express overnight, then were trypsinized and resuspended in Opti-MEM (reduced serum, no phenol red) 4% FBS at a concentration of 220,000 cells/mL. HaloTag NanoBRET 618 ligand was added at a final concentration of 100 nM to cells (with a portion of cells retained without ligand for use as no-acceptor controls for normalization). 90 μL of cells were then dispensed into each well of a tissue culture 96-well plate and cells were allowed to adhere overnight. The next day, media was aspirated from cells and replaced with 90 μL of a 1× solution of Opti-MEM 4% FBS containing a 1:100 dilution of Nano-Glo Vivazine substrate. […] 10 μL of each 10 × PROTAC was added to each well and the plate was immediately placed in a ClarioStar plate reader (prewarmed to 37 °C) where donor emission (460 nm) and acceptor emission (618 nm) was collected every 3 min for 4 h. NanoBRET ratios were calculated as described in the ternary complex assay.

RKO CRBN KO cells = assay: Cell viability assay (CellTiter-Glo); format: cell-based, human; conditions: 316 pM to 10 μM, 3 days, n = 3 (Figures 5 and 8C, Table S5)

SMILES | ternary complex formation between BRD4 and VHL (in words) [1] | ternary complex formation between BRD4 and CRBN (in words) [2] | time to plateau of ternary complex signal with CRBN [2] | ubiquitination of BRD4 (in words) (BRD4) | EC50 (RKO CRBN KO cells; listed as 27) | EC50 (RKO CRBN KO cells; Homo sapiens, 72 h) | ternary complex formation between BRD4 and VHL (in words) ([1]; listed as 27) | ternary complex formation between BRD4 and CRBN (in words) ([2]; listed as 27) | EC50 (RKO CRBN KO cells; listed as 86)
Cc1ncsc1-c1ccc(CNC(=O)[C@@H]2C[C@@H](O)CN2C(=O)[C@@H](NC(=O)COCC(C)(COCCOCCOCCNc2cc3c(cc2F)C(=O)N(C2CCC(=O)NC2=O)C3=O)COCCOCCOCCOC(=O)C[C@@H]2N=C(c3ccc(Cl)cc3)c3c(sc(C)c3C)-n3c(C)nnc32)C(C)(C)C)cc1 (mixture of isomers) [AB3063 (26), (17S)-11-((2-(2-(2-((2-(2,6-dioxopiperidin-3-yl)-6-fluoro-1,3-dioxoisoindolin-5-yl)amino)ethoxy)ethoxy)ethoxy)methyl)-17-((2S,4R)-4-hydroxy-2-((4-(4-methylthiazol-5-yl)benzyl)carbamoyl)pyrrolidine-1-carbonyl)-11,18,18-trimethyl-15-oxo-3,6,9,13-tetraoxa-16-azanonadecyl 2-((S)-4-(4-chlorophenyl)-2,3,9-trimethyl-6H-thieno[3,2-f][1,2,4]triazolo[4,3-a][1,4]diazepin-6-yl)acetate] | can engage and form ternary complexes | can engage and form ternary complexes | 30 min | – | – | – | – | – | –
Cc1ncsc1-c1ccc([C@H](C)NC(=O)[C@@H]2C[C@@H](O)CN2C(=O)[C@@H](NC(=O)COCC(C)(COCCOCCOCCNc2cc3c(cc2F)C(=O)N(C2CCC(=O)NC2=O)C3=O)COCCOCCOCCOC(=O)C[C@@H]2N=C(c3ccc(Cl)cc3)c3c(sc(C)c3C)-n3c(C)nnc32)C(C)(C)C)cc1 (mixture of isomers) [AB3067 (27), (17S)-11-((2-(2-(2-((2-(2,6-dioxopiperidin-3-yl)-6-fluoro-1,3-dioxoisoindolin-5-yl)amino)ethoxy)ethoxy)ethoxy)methyl)-17-((2S,4R)-4-hydroxy-2-(((S)-1-(4-(4-methylthiazol-5-yl)phenyl)ethyl)carbamoyl)pyrrolidine-1-carbonyl)-11,18,18-trimethyl-15-oxo-3,6,9,13-tetraoxa-16-azanonadecyl 2-((S)-4-(4-chlorophenyl)-2,3,9-trimethyl-6H-thieno[3,2-f][1,2,4]triazolo[4,3-a][1,4]diazepin-6-yl)acetate] | – | – | 30 min | occurs more rapidly than in either the CRBN KO or VHL KO cells | 133 nM | 180 nM | can engage and form ternary complexes; also recorded: more robust dose–response with both VHL and CRBN than 26 | can engage and form ternary complexes; also recorded: more robust dose–response with both VHL and CRBN than 26 | –
Cc1ncsc1-c1ccc(CNC(=O)[C@@H]2C[C@@H](O)CN2C(=O)[C@@H](NC(=O)COCC(COCCOCCOCCNc2cc3c(cc2F)C(=O)N(C2CCC(=O)NC2=O)C3=O)(COCCOCCOCCOC(=O)C[C@@H]2N=C(c3ccc(Cl)cc3)c3c(sc(C)c3C)-n3c(C)nnc32)COCCOCCOCCOC(=O)C[C@@H]2N=C(c3ccc(Cl)cc3)c3c(sc(C)c3C)-n3c(C)nnc32)C(C)(C)C)cc1 (mixture of isomers) [AB3124 (86)] | – | – | – | – | – | 34 nM | – | – | 62 nM
